Reference: PubChem BioAssay (NCI)
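Compound exposure: 48 hours, 5 concentrations, 96-well plates. GI50 is the concentration that inhibits growth by half. TGI: concentration producing complete growth inhibition.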

Key:
Assay in all cases: NCI tumour cell line growth inhibition, 48 h
SK-MEL-5 melanoma = system: SK-MEL-5 melanoma
A498 renal = system: A498 renal
OVCAR-8 ovarian = system: OVCAR-8 ovarian
OVCAR-4 ovarian = system: OVCAR-4 ovarian
CAKI-1 renal = system: CAKI-1 renal
SR leukemia = system: SR leukemia
SK-MEL-28 melanoma = system: SK-MEL-28 melanoma
HCT-116 colon = system: HCT-116 colon
HOP-62 NSCLC = system: HOP-62 NSCLC
MDA-MB-231 breast = system: MDA-MB-231 breast
M14 melanoma = system: M14 melanoma
A549 NSCLC = system: A549 NSCLC
SF-268 CNS = system: SF-268 CNS
HCT-15 colon = system: HCT-15 colon
SN12C renal = system: SN12C renal
NCI-H226 lung = system: NCI-H226 lung
K-562 leukemia = system: K-562 leukemia
DU-145 prostate = system: DU-145 prostate
HS 578T breast = system: HS 578T breast
MDA-MB-435 = system: MDA-MB-435
T-47D breast = system: T-47D breast
RPMI-8226 leukemia = system: RPMI-8226 leukemia
HT29 colon = system: HT29 colon
PC-3 prostate = system: PC-3 prostate
BT-549 breast = system: BT-549 breast

Question: What does the source list for `Nc1ccc(-c2nnc(SCc3ccc(O)c4ncccc34)n2-c2ccccc2)cc1`?
Answer: GI50 (SK-MEL-5 melanoma): 25.2 nM; TGI (SK-MEL-5 melanoma): 80.4 nM; GI50 (A498 renal): 933 nM; TGI (A498 renal): > 24600 nM; GI50 (OVCAR-8 ovarian): 38.7 nM; TGI (OVCAR-8 ovarian): > 100000 nM; GI50 (OVCAR-4 ovarian): 68.8 nM; TGI (OVCAR-4 ovarian): > 100000 nM; GI50 (CAKI-1 renal): 62.7 nM; TGI (CAKI-1 renal): > 100000 nM; GI50 (SR leukemia): 44.1 nM; TGI (SR leukemia): > 100000 nM; GI50 (SK-MEL-28 melanoma): 72.4 nM; TGI (SK-MEL-28 melanoma): > 100000 nM; GI50 (HCT-116 colon): < 17.2 nM; TGI (HCT-116 colon): > 37400 nM; GI50 (HOP-62 NSCLC): 66.1 nM; TGI (HOP-62 NSCLC): > 100000 nM; GI50 (MDA-MB-231 breast): 69.5 nM; TGI (MDA-MB-231 breast): 98800 nM; GI50 (M14 melanoma): 40.2 nM; TGI (M14 melanoma): 4300 nM; GI50 (A549 NSCLC): 40.3 nM; TGI (A549 NSCLC): > 100000 nM; GI50 (SF-268 CNS): 45.2 nM; TGI (SF-268 CNS): > 100000 nM; GI50 (HCT-15 colon): 49.8 nM; TGI (HCT-15 colon): > 100000 nM; GI50 (SN12C renal): 31.8 nM; TGI (SN12C renal): > 100000 nM; GI50 (NCI-H226 lung): 1150 nM; TGI (NCI-H226 lung): > 100000 nM; GI50 (K-562 leukemia): 15.2 nM; TGI (K-562 leukemia): > 100000 nM; GI50 (DU-145 prostate): 33.9 nM; TGI (DU-145 prostate): > 100000 nM; GI50 (HS 578T breast): 47.8 nM; TGI (HS 578T breast): > 100000 nM; GI50 (MDA-MB-435): 32.1 nM; TGI (MDA-MB-435): > 100000 nM; GI50 (T-47D breast): 73.5 nM; TGI (T-47D breast): > 100000 nM; GI50 (RPMI-8226 leukemia): 24.4 nM; TGI (RPMI-8226 leukemia): > 100000 nM; GI50 (HT29 colon): 890 nM; TGI (HT29 colon): > 100000 nM; GI50 (PC-3 prostate): 17 nM; TGI (PC-3 prostate): > 100000 nM; GI50 (BT-549 breast): 29.1 nM; TGI (BT-549 breast): > 100000 nM
